Values of other authors as cited in patent publication US6689382B2, “Soft shell gelatin capsules containing non-steroidal anti-inflammatories” (priority 2002, dated 2004).

Experiments:
[1] = clinical trials
COX-2 and COX-1 = settings: for selectivity for COX-1 and COX-2 (in words): conventional 1st generation NSAIDs; for ratio COX-2 IC50 divided by COX-1 IC50: in vitro, the smaller the ratio the more selective for COX-2

SMILES	selectivity for COX-1 and COX-2 (in words) (COX-2 and COX-1)	ratio COX-2 IC50 divided by COX-1 IC50 (COX-2 and COX-1)	further results
Cc1ccc(-c2cc(C(F)(F)F)nn2-c2ccc(S(N)(=O)=O)cc2)cc1 [celecoxib, Celecoxib]			anti-inflammatory activity [1]: effective anti-inflammatory activity; gastrointestinal adverse effects ([1]; compared to placebo): virtually no gastrointestinal adverse effects
CC(C)Cc1ccc(C(C)C(=O)O)cc1 (stereo not shown) [ibuprofen]	essentially non-selective		
COc1ccc2c(c1)c(CC(=O)O)c(C)n2C(=O)c1ccc(Cl)cc1 [indomethacin]		about 30	
CC(C(=O)O)c1cccc(C(=O)c2ccccc2)c1 (stereo not shown) [ketoprofen]	relatively COX-1 selective		
COc1ccc2cc([C@H](C)C(=O)O)ccc2c1 [naproxen]	essentially non-selective		
CN1C(C(=O)Nc2ccccn2)=C(O)c2ccccc2S1(=O)=O [piroxicam]		about 30	
